PMC12169669, “Regio- and Stereoselective Synthesis of Nitro-fatty Acids as NRF2 Pathway Activators Working under Ambient or Hypoxic Conditions” (Journal of Medicinal Chemistry, 2025)

Tests used:
NRF2 = NRF2 stabilization in bone marrow cells (Western blot, whole-cell lysates); format: cell-based, mouse; settings: BMCs, 2 μM, 1 h
Description: (§1) Primary bone marrow cells (BMCs) were isolated from 8–12-week-old male C57BL/6 mice (25–30 g, AnLab, Czech Republic). Mice were housed under standard conditions. BMCs were isolated as follows: The day before isolation, phosphate-buffered saline (PBS), ACK Lysis Buffer (A10492-01, Thermo Fisher Scientific), and Iscove’s Modified Dulbecco’s Medium (IMDM) (12440-053, Thermo Fisher Scientific) were placed in a hypoxic chamber (InvivO2 400, Baker Ruskinn, UK) with adjustable oxygen control to equilibrate for the target oxygen concentrations. On the day of the experiment, animals were euthanized using ketamine/xylazine, and bilateral femurs were extracted. BMCs were flushed with hypoxic (1% O2 unless stated otherwise) PBS supplemented with 2% fetal bovine serum (FBS; low endotoxin, FB-1101/500, Biosera, France). After hemolysis at room temperature using hypoxic ACK Lysis Buffer, nucleated BMCs were washed with hypoxic PBS + 2% FBS and counted using a TC20 automated cell counter (Bio-Rad). Cells were kept under hypoxic conditions prior to treatment. The medium for BMC culture, consisting of IMDM with 2% FBS and 1% penicillin/streptomycin (LM-A4118/100, Biosera, France), was supplemented with 10 ng/mL mouse IL-3, 10 ng/mL mouse IL-6, and 50 ng/mL mouse stem cell factor - SCF (213-13, 216-16, and 250-03, respectively; all from PeproTech). Cells were cultured at 37 °C in a humidified atmosphere containing 5% CO2 and the specified oxygen concentrations (21%, 4%, or 1%).
Briefly, 1.5 × 10^6 BMCs were placed in 0.2 mL of complete medium in 1.5 mL microtubes and incubated with 2 μM NO2FAs or the control (medium only) for 1 (NRF2), 4 (heme oxygenase-1, HO-1), or 7 (glutamate-cysteine ligase modifier subunit, GCLM) hours at the specified oxygen levels (21%, 4%, or 1%). Cells were then spun down and washed with PBS (from this step onward, cells were processed under atmospheric conditions). Next, cells were lysed in 60 μL RIPA buffer (89901, Thermo Fisher Scientific) containing protease and phosphatase inhibitors cocktail (78442, Thermo Fisher Scientific). Cell lysates were sonicated and centrifuged at 15,000g for 3 min at 4 °C, and 15 μL of lane marker (3900, Thermo Fisher Scientific) was added to the supernatants. Samples were boiled for 3 min at 95 °C. Equal volumes of lysates (15–45 μL/well) were loaded onto 7–15% SDS-polyacrylamide gels. Proteins were then transferred onto PVDF membranes (IPVH85R, EMD Millipore Corp.) and blocked with 5% nonfat dry milk in TBST. Membranes were incubated overnight at 4 °C with the following primary antibodies: anti-β-actin (1:1000; #3700, Cell Signaling Technology), antivinculin (1:10,000; #SAV9264, Sigma-Aldrich), anti-NRF2 (1:500; A308758, Lot 38410, Antibodies.com, UK), anti-HO-1 (1:1000; #43966, Cell Signaling Technology), antihistone H3 (1:2000; #4499, Cell Signaling Technology), or anti-GCLM (1:100; sc-55586, Santa Cruz Biotechnology). This was followed by incubation with corresponding HRP-linked secondary antibodies (antimouse IgG, #7076, 1:1000–5000; or antirabbit IgG, #7074, 1:1000–2000; both from Cell Signaling Technology) for 1 h at room temperature. Protein bands were visualized using an enhanced chemiluminescent substrate (SuperSignal 34577/34095, Thermo Fisher Scientific). The optical densities of detected proteins were measured using ImageJ v1.52 (NIH).
2 Stabilization of NRF2 by tested NO2FA derivatives. NO 2 FA derivatives stabilize NRF2 in mouse bone marrow cells (BMCs). Nucleated BMCs were cultured under varying oxygen conditions (21%, 4%, and 1%) and treated for 1 h with 2 μM of the tested NO 2 FAs, followed by analysis of NRF2 expression in whole-cell lysates. Results are shown as the fold change relative to control cells across different oxygen culture conditions (A–C). Data are expressed as mean ± SD from 3–4 independent experiments (n = 3–4). Statistical analysis was performed using one-way ANOVA with Dunnett’s multiple comparisons test (* p < 0.05).

Hmox1 = test: Relative gene expression of Hmox1 in BMCs (qRT-PCR); format: cell-based, mouse; settings: 2 μM, 4 h; for Hmox1 relative expression: 4% and 1% oxygen
Description: as §1
For the relative gene expression of nuclear factor erythroid 2-related factor 2 (NRF2, encoded by Nfe2l2), heme oxygenase-1 (Hmox1), and Glutamate-Cysteine Ligase Modifier Subunit (Gclm) (Mm00477784_m1, Mm00516005_m1, Mm00514996_m1, all from Thermo Fisher Scientific), mouse BMC (3 × 10^6 cells) were cultivated on a 6-well plate in 1.5 mL of complete media (see Isolation and culture of primary cells), and then incubated with 2 μM NO2FAs or control (medium only) for 4 h at the specified oxygen levels (21%, 4%, or 1%). Then, the adherent and nonadherent cells were washed with PBS and lysed using a NucleoSpin RNA Plus kit (740984, Machery-Nagel; Germany). The concentration and purity of isolated RNA was assessed using an Infinite M200 Pro spectrophotometer (Tecan, Austria). Total RNA (0.2 μg) was reversely transcribed into first strand cDNA using a RevertAid First Strand cDNA Synthesis kit according to the manufacturer’s protocol (K1622, Thermo Fisher Scientific). qRT-PCR reactions were performed in a LightCycler480 instrument (Roche; Switzerland) using TaqMan FastAdvanced Master Mix for qPCR (4444557, Thermo Fisher Scientific) and the following program was used: uracil-N-glycosylase activation step at 50 °C for 2 min, an initial denaturation step at 95 °C for 2 min, followed by 45 cycles (95 °C for 3 s, 60 °C for 30 s), and a final cooling step at 40 °C for 1 min. Data were normalized to ribosomal protein L32 (Rpl32, Mm02528467_g1, Thermo Fisher Scientific) and presented as 2^–Δcq.
3 Expression of NRF2 and its target genes in response to NO2FA derivatives. BMCs were cultured under 4% or 1% oxygen conditions and treated for 4 h with the tested NO 2 FAs (2 μM) or medium followed by quantification of (A) Nfe2l2, (B) Hmox1, and (C) Gclm with PCR. Results are presented as relative expression across different oxygen culture conditions. Dimethyl fumarate (DMF) was added as a control. Data are expressed as mean ± SD from 3 to 7 independent experiments (n = 3–7), analyzed with one-way ANOVA with Dunnett’s multiple comparisons test compared to the controls (*p < 0.05; **p < 0.01; ***p < 0.001).
Relative expression of (A) Hmox1 and (B) Gclm in different oxygen […]
Figure S 2. Relative expression of (A) Hmox1 and (B) Gclm in different oxygen conditions. BMCs were cultured under varying oxygen conditions (21, 4, and 1%) and treated for 4 hours with the tested 10 -NO₂OA (2 µM) or medium followed by quantification […]
with PCR. […]

| SMILES | NRF2 expression (stabilization), fold change relative to control (NRF2; 1% oxygen) | Hmox1 relative expression (Hmox1) | NRF2 expression (stabilization), fold change relative to control (NRF2; 4% oxygen) | NRF2 expression (stabilization), fold change relative to control (NRF2; 21% oxygen) | Hmox1 expression at 1% oxygen compared to 21% (Hmox1; 1% vs 21% oxygen) |
| --- | --- | --- | --- | --- | --- |
| CCCCCCCC/C=C(\CCCCCCCC(=O)O)[N+](=O)[O-] [9-NO2OA, (9E)-9-Nitro-oleic Acid] | significantly increased | significant upregulation |  |  |  |
| CCCCC/C=C\C/C(=C\CCCCCCCC(=O)O)[N+](=O)[O-] [10-NO2LA, (9E,12Z)-10-Nitro Linoleic Acid] |  | upregulation that was dependent on oxygen levels or specific target genes | significantly increased |  |  |
| CCCCCCCCC(CCCCCCCCC(=O)O)[N+](=O)[O-] (centres unmarked) [10-NO2SA, 10-Nitro Stearic acid] | no effect | no effects | no effect | no effect |  |
| CCCCCCCC/C(=C\CCCCCCCC(=O)O)[N+](=O)[O-] [10-NO2OA, (9E)-10-Nitro-oleic Acid] | significantly increased | significant upregulation |  |  | significantly upregulated |
| CCCCCC/C=C/C=C(\CCCCCCCC(=O)O)[N+](=O)[O-] [9-NO2cLA, (9E,11E)-9-Nitro Conjugated Linoleic Acid] | nonsignificant increase | upregulation that was dependent on oxygen levels | nonsignificant increase |  |  |
